{"source": "patent US6440901B1", "about": "“Calcium chloride fruit blossom thinning agent” (priority 2000, dated 2002)", "key": {"[1]": {"test_system": "“WVC” Fuji Apples", "settings": "for Mean Fruit Area per Limb: East Wenatchee, airblast spray at bloom; for Mean Fruit per 100 Clusters: fruit set", "procedure": "A first field trial to test the effects of calcium chloride as a bloom thinning agent was performed in an orchard located in East Wenatchee, Washington, by the Washington Tree Fruit Research Commission on a commercial block of a Fuji apple cultivar of the variety “WVC.” Two areas of the block's apples were each treated with two alternative chemical thinning compounds. Calcium chloride was used in the first area. […] A third area of the apple block was utilized as a control group and treated with water. The treatments were all performed with conventional test methodologies and procedures.\nOther than the application of the thinning compounds, all three blocks were managed without differentiation. All treatments were applied utilizing standard airblast sprayers and spreader-stickers as appropriate. The experiments were in a randomized complete block design with 2 to 4 replications. […] Results of this trial are listed in TABLE 1 and shown in the graphs of FIGS. 1 and 3."}, "[2]": {"test_system": "“Lutz” Red Delicious Apples", "settings": "for Mean Fruit Area per Limb: Azwell; for Mean Fruit per 100 Clusters: fruit set", "procedure": "A second field trial to test the effects of calcium chloride as a bloom thinning agent was performed at an orchard located in Azwell, Washington, by the Washington Tree Fruit Research Commission on a commercial block of a Red Delicious apple cultivar of the variety “Lutz.” Three areas of the block's apples were each treated with one of three alternative chemical thinning compounds. […] Calcium chloride was used in the second area and “Crocker's” lime and sulfur was used in the third area. A fourth area of the apple block was utilized as a control group and treated with water as a control. The treatments were all performed with conventional test methodologies and procedures. Other than the application of the thinning compounds, all four blocks were managed without differentiation."}, "[3]": {"test_system": "apples", "test": "Overall observations of both field trials (damage, thinning, fruit L/D)", "format": "in vivo, apple", "procedure": "A series of field trials comparing the calcium chloride composition of the present invention to other alternative chemical thinners were performed to verify efficacy as a bloom thinner. The trials followed labeling recommendations and best management practices for all applications. Two of these trials are discussed as follows, but are not intended to specifically limit the invention: […]"}}, "data": [{"compound": "[Ca+2].[Cl-].[Cl-]", "note": "[CaCl, calcium chloride]", "values": [{"measurement": "% Flower Clusters Blanked", "setting": "[1]", "result": 40.0, "unit": "%"}, {"measurement": "% Flower Clusters Doubled", "setting": "[1]", "result": 12.5, "unit": "%"}, {"measurement": "% Flower Clusters Singled", "setting": "[1]", "result": 45.5, "unit": "%"}, {"measurement": "% Flower Clusters Tripled", "setting": "[1]", "result": 2.0, "unit": "%"}, {"measurement": "% Flower Clusters w/4+ Fruit", "setting": "[1]", "result": 0.1, "unit": "%"}, {"measurement": "Mean Fruit Area per Limb", "setting": "[1]", "result": 5.0, "unit": "cm^2"}, {"measurement": "Mean Fruit per 100 Clusters", "setting": "[1]", "result": 79}, {"measurement": "% Flower Clusters Blanked", "setting": "[2]", "result": 41.7, "unit": "%"}, {"measurement": "% Flower Clusters Doubled", "setting": "[2]", "result": 12.7, "unit": "%"}, {"measurement": "% Flower Clusters Singled", "setting": "[2]", "result": 44.4, "unit": "%"}, {"measurement": "% Flower Clusters Tripled", "setting": "[2]", "result": 1.0, "unit": "%"}, {"measurement": "% Flower Clusters w/4+ Fruit", "setting": "[2]", "result": 0.2, "unit": "%"}, {"measurement": "Mean Fruit Area per Limb", "setting": "[2]", "result": 2.6, "unit": "cm^2"}, {"measurement": "Mean Fruit per 100 Clusters", "setting": "[2]", "result": 73}, {"measurement": "impact on average fruit length over diameter (L/D) ratio", "setting": "[3]; harvested fruit", "result": "minimally impacted"}, {"measurement": "difference in bloom thinning between treatments", "setting": "[3]; with feedback on hand thinning time per tree, ATS versus calcium chloride", "result": "no consistent, significant differences between ATS and calcium chloride"}]}, {"compound": "ammonium thiosulfate [ATS, reference compound]", "values": [{"measurement": "% Flower Clusters Blanked", "setting": "[1]", "result": 38.2, "unit": "%"}, {"measurement": "% Flower Clusters Doubled", "setting": "[1]", "result": 11.9, "unit": "%"}, {"measurement": "% Flower Clusters Singled", "setting": "[1]", "result": 47.4, "unit": "%"}, {"measurement": "% Flower Clusters Tripled", "setting": "[1]", "result": 1.9, "unit": "%"}, {"measurement": "% Flower Clusters w/4+ Fruit", "setting": "[1]", "result": 0.7, "unit": "%"}, {"measurement": "Mean Fruit Area per Limb", "setting": "[1]", "result": 5.8, "unit": "cm^2"}, {"measurement": "Mean Fruit per 100 Clusters", "setting": "[1]", "result": 84}, {"measurement": "% Flower Clusters Blanked", "setting": "[2]", "result": 47.0, "unit": "%"}, {"measurement": "% Flower Clusters Doubled", "setting": "[2]", "result": 12.8, "unit": "%"}, {"measurement": "% Flower Clusters Singled", "setting": "[2]", "result": 38.8, "unit": "%"}, {"measurement": "% Flower Clusters Tripled", "setting": "[2]", "result": 1.5, "unit": "%"}, {"measurement": "% Flower Clusters w/4+ Fruit", "setting": "[2]", "result": 0.0, "unit": "%"}, {"measurement": "Mean Fruit Area per Limb", "setting": "[2]", "result": 2.7, "unit": "cm^2"}, {"measurement": "Mean Fruit per 100 Clusters", "setting": "[2]", "result": 69}]}]}
